Data as given in PubChem BioAssay AID540332 (The Scripps Research Institute Molecular Screening Center, 2011).
Active and inactive are the calls of the source. How the calls were made is not given here.

Columns and labels:
Assay in all cases: selectivity profile across receptors and CYP450s – biochemical, Ricerca HitProfilingScreen, CYP450, set 2, selectivity assay for S1P4 agonist project, profiling panel (AID 540332)
[1] = molecular target: 5-hydroxytryptamine receptor 2B (Homo sapiens) (UniProt P41595); details: Serotonin (5-Hydroxytryptamine) 5-HT2B; at 30 µM; active compounds read high
[2] = molecular target: Muscarinic acetylcholine receptor M3 (Homo sapiens) (UniProt P20309); details: at 30 µM, active compounds read high
Dopamine D2 = details: at 30 µM; active compounds read high
[3] = molecular target: Beta-2 adrenergic receptor (Homo sapiens) (UniProt P07550); details: Adrenergic beta2; at 30 µM; active compounds read high
Adenosine A2A = details: at 30 µM; active compounds read high
[4] = molecular target: Alpha-2A adrenergic receptor (Homo sapiens) (UniProt P08913); details: Adrenergic alpha2A; at 30 µM; active compounds read high
Adrenergic alpha1B = details: at 30 µM; active compounds read high
GABAA = details: Central, at 30 µM, active compounds read high
Adrenergic beta1 = details: at 30 µM; active compounds read high
[5] = system: Alpha-2A adrenergic receptor (Homo sapiens) + Histamine H1 receptor (Homo sapiens) + Mu-type opioid receptor (Homo sapiens); details: at 30 µM; active compounds read high
CYP450 2C19 = details: at 30 µM; active compounds read high
[6] = molecular target: D(1A) dopamine receptor (Homo sapiens) (UniProt P21728); details: Dopamine D1; at 30 µM; active compounds read high
Sodium Channel, Site 2 = details: at 30 µM; active compounds read high
[7] = molecular target: Cytochrome P450 2D6 (Homo sapiens) (UniProt P10635); details: CYP450 2D6; at 30 µM; active compounds read high
Prostanoid EP4 = details: at 30 µM; active compounds read high
[8] = system: Calcium Channel L-Type, Dihydropyridine; details: at 30 µM; active compounds read high
Adrenergic alpha1A = details: at 30 µM; active compounds read high
[9] = molecular target: Cytochrome P450 3A4 (Homo sapiens) (UniProt P08684); details: CYP450 3A4; at 30 µM; active compounds read high
Adenosine A1 = details: at 30 µM; active compounds read high
Glutamate, NMDA = details: Phencyclidine; at 30 µM; active compounds read high
Opiate mu (OP3, MOP) = details: at 30 µM; active compounds read high
[10] = molecular target: Cytochrome P450 2C9 (Homo sapiens) (UniProt P11712); details: CYP450 2C9; at 30 µM; active compounds read high
[11] = molecular target: Cytochrome P450 1A2 (Homo sapiens) (UniProt P05177); details: CYP450 1A2; at 30 µM; active compounds read high
[12] = system: Norepinephrine Transporter (NET); details: at 30 µM; active compounds read high
[13] = molecular target: Voltage-gated inwardly rectifying potassium channel KCNH2 (Homo sapiens) (UniProt Q12809); details: Potassium Channel hERG; at 30 µM; active compounds read high
Nicotinic Acetylcholine = details: at 30 µM; active compounds read high
Cannabinoid CB1 = details: at 30 µM; active compounds read high
Histamine H1 = details: at 30 µM; active compounds read high
[14] = molecular target: Muscarinic acetylcholine receptor M2 (Homo sapiens) (UniProt P08172); details: at 30 µM, active compounds read high
Sigma 1 = details: at 30 µM; active compounds read high

Chain of D(1A) dopamine receptor (Homo sapiens) (P21728 whole entry, looked up): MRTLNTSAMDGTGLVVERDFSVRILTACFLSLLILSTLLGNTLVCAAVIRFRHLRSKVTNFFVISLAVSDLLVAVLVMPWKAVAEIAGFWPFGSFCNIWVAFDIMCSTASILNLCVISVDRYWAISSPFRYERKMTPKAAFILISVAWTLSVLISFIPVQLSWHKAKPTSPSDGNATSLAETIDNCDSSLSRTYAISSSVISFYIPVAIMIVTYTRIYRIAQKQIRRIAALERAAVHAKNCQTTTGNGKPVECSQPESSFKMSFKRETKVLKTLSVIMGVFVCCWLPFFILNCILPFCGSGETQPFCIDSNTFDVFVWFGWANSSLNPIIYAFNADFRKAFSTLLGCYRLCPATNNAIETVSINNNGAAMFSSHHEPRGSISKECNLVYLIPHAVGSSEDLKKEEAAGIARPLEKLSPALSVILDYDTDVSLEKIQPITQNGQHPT
Chain of 5-hydroxytryptamine receptor 2B (Homo sapiens) (P41595 whole entry, looked up): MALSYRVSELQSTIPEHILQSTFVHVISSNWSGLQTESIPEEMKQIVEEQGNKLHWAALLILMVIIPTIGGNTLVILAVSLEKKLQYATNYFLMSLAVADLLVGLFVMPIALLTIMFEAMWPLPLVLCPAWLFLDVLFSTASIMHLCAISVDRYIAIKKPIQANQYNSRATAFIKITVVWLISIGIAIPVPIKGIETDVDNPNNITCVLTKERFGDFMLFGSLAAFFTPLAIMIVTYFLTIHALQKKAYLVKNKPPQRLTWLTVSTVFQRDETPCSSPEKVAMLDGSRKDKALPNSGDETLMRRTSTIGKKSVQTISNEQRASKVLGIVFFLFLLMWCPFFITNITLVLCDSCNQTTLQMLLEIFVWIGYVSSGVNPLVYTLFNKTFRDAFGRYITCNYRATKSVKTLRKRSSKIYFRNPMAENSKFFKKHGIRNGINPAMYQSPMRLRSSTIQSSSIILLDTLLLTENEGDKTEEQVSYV
Chain of Cytochrome P450 1A2 (Homo sapiens) (P05177 whole entry, looked up): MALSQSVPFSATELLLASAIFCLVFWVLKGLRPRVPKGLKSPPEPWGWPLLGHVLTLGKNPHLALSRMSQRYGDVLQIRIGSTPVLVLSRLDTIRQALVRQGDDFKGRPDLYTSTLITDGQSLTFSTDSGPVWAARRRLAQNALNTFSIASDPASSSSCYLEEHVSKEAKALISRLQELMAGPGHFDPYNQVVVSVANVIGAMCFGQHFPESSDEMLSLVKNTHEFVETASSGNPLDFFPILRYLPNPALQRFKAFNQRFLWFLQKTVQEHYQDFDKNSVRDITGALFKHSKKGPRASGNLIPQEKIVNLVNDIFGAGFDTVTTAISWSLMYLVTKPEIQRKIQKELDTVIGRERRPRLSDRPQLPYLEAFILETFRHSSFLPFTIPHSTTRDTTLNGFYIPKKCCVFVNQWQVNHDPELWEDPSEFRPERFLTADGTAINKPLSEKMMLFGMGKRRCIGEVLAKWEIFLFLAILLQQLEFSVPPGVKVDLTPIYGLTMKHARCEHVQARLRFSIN
Chain of Cytochrome P450 2C9 (Homo sapiens) (P11712 whole entry, looked up): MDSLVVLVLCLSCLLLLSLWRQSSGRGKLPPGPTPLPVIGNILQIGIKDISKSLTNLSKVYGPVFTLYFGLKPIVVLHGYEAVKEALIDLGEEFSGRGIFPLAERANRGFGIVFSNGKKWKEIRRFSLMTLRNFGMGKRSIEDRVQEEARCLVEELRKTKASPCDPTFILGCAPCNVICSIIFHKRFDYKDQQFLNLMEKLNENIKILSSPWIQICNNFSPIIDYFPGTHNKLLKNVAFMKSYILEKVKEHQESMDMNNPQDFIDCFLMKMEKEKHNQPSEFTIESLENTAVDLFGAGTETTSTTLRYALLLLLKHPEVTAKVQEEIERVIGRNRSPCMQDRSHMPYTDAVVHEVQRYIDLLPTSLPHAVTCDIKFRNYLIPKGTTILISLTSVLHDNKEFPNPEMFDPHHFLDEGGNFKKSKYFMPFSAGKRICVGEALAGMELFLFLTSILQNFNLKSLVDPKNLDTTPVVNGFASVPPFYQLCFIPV
Chain of Beta-2 adrenergic receptor (Homo sapiens) (P07550 whole entry, looked up): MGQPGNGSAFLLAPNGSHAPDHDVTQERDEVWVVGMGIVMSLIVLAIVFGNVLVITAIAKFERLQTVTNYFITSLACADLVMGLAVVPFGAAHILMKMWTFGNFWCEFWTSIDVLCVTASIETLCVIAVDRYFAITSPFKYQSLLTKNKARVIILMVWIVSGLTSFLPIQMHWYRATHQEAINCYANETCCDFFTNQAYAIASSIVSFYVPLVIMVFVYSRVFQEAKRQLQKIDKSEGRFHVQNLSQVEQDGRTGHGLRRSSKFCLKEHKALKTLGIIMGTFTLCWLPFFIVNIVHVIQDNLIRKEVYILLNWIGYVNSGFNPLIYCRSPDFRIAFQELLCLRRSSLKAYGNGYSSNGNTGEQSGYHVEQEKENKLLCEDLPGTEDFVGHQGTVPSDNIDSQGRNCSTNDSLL
Chain of Muscarinic acetylcholine receptor M2 (Homo sapiens) (P08172 whole entry, looked up): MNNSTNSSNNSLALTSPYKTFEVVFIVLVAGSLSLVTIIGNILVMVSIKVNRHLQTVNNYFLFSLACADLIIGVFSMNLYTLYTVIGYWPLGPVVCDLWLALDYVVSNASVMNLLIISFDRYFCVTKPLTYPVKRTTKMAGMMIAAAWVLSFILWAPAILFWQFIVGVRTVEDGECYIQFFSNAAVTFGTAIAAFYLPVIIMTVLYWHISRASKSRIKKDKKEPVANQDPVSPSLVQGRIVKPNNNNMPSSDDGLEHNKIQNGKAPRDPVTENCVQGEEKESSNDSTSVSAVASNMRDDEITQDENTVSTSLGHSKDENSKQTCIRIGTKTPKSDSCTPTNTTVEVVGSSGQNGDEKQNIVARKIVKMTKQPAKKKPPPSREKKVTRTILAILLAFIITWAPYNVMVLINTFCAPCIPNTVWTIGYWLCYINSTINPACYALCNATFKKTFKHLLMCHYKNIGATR
Chain of Voltage-gated inwardly rectifying potassium channel KCNH2 (Homo sapiens) (Q12809 whole entry, looked up): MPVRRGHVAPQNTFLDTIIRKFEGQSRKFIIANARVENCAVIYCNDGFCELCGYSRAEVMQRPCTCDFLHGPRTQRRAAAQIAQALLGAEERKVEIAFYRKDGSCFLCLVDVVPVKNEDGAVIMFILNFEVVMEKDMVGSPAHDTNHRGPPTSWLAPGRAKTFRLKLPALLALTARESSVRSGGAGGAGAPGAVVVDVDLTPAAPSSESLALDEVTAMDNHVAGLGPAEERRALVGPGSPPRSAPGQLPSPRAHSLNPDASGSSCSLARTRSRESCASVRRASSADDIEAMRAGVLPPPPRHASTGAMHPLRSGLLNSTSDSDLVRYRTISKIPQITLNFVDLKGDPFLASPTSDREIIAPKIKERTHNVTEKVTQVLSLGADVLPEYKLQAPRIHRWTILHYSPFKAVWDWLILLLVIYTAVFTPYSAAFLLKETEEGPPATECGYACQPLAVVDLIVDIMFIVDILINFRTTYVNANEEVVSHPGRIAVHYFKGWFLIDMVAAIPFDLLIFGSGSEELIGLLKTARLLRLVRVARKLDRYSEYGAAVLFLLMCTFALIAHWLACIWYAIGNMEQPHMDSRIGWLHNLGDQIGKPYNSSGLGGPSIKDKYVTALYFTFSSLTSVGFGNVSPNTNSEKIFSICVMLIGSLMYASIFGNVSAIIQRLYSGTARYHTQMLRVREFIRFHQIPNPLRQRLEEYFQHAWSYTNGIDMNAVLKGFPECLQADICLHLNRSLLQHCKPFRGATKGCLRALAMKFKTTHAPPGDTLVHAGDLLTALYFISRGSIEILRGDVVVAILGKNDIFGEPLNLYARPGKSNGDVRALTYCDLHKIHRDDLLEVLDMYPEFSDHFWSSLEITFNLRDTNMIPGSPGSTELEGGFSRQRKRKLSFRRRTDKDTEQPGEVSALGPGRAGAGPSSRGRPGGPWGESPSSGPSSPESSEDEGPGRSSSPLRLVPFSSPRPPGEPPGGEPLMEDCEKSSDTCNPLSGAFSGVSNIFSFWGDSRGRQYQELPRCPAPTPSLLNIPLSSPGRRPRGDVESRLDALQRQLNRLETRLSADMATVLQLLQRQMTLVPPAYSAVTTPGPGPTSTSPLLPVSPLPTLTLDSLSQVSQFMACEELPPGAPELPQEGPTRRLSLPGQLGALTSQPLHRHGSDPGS
Chain of Alpha-2A adrenergic receptor (Homo sapiens) (P08913 whole entry, looked up): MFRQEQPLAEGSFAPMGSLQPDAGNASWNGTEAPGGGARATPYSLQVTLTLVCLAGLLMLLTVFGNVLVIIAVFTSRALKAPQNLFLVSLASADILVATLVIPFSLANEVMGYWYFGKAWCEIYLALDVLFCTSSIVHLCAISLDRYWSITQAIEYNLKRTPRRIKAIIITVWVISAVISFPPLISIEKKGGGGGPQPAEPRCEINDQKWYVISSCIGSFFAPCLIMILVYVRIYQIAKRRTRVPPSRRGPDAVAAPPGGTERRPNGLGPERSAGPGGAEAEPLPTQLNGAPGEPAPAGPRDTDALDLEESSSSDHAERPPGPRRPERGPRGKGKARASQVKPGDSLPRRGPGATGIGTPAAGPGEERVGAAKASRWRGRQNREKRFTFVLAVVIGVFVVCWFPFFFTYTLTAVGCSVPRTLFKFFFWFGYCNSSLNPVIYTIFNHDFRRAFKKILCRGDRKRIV
Chain of Muscarinic acetylcholine receptor M3 (Homo sapiens) (P20309 whole entry, looked up): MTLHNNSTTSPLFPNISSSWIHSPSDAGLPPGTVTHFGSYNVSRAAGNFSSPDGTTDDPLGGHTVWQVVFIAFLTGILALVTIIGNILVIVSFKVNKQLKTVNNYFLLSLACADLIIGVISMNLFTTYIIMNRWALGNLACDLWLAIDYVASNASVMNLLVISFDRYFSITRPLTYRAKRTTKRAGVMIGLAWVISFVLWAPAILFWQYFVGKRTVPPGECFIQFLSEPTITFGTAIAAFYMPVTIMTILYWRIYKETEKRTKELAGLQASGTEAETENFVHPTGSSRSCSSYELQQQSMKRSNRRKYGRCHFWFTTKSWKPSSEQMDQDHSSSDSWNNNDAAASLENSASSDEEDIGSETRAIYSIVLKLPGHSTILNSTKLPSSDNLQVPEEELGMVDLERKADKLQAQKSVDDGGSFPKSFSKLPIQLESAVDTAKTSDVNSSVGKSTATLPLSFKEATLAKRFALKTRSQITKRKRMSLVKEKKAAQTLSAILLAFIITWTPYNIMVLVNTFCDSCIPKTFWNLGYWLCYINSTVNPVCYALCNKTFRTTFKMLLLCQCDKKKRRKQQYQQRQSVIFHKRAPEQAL

Question: For `COCCN=C1S/C(=C\c2cc(C)n(-c3ccc(F)cc3F)c2C)C(=O)N1C`, which inhibition [1] is on record?
Answer: 66%

Question: And the inhibition [2]?
Answer: 23% (inactive)

Question: What about the inhibition (Dopamine D2) of the same compound?
Answer: 12% (inactive)

Question: What about the inhibition [3] of the same compound?
Answer: 6% (inactive)

Question: What about the inhibition (Adenosine A2A) of the same compound?
Answer: 26% (inactive)

Question: And the inhibition [4]?
Answer: 40% (inactive)

Question: And the inhibition (Adrenergic alpha1B)?
Answer: 42% (inactive)

Question: And the inhibition (GABAA; Flunitrazepam)?
Answer: -8% (inactive)

Question: And the inhibition (GABAA; Muscimol)?
Answer: 3% (inactive)

Question: And the inhibition (Adrenergic beta1)?
Answer: 39% (inactive)

Question: What about the inhibition [5] of the same compound?
Answer: 11% (inactive)

Question: And the inhibition (CYP450 2C19)?
Answer: -24% (inactive)

Question: What about the inhibition [6] of the same compound?
Answer: 27% (inactive)

Question: What about the inhibition (Sodium Channel, Site 2) of the same compound?
Answer: 59%

Question: What about the inhibition [7] of the same compound?
Answer: 8% (inactive)

Question: What about the inhibition (Prostanoid EP4) of the same compound?
Answer: 29% (inactive)

Question: What about the inhibition [8] of the same compound?
Answer: 64%

Question: And the inhibition (Adrenergic alpha1A)?
Answer: 40% (inactive)

Question: And the inhibition [9]?
Answer: 56%

Question: What about the inhibition (Adenosine A1) of the same compound?
Answer: 29% (inactive)

Question: And the inhibition (Glutamate, NMDA)?
Answer: 6% (inactive)

Question: And the inhibition (Opiate mu (OP3, MOP))?
Answer: 69%

Question: And the inhibition [10]?
Answer: -28% (inactive)

Question: And the inhibition [11]?
Answer: 14% (inactive)

Question: And the inhibition [12]?
Answer: 71%

Question: What about the inhibition [13] of the same compound?
Answer: 29% (inactive)

Question: What about the inhibition (Nicotinic Acetylcholine) of the same compound?
Answer: -53%

Question: What about the inhibition (Cannabinoid CB1) of the same compound?
Answer: 65%

Question: What about the inhibition (Histamine H1) of the same compound?
Answer: 52%

Question: What about the inhibition [14] of the same compound?
Answer: 13% (inactive)

Question: What about the inhibition (Sigma 1) of the same compound?
Answer: 2% (inactive)
